{
  "source": "patent US9701709B2",
  "about": "(REATA PHARMACEUTICALS, INC., priority 2012, dated 2017)",
  "format_in_all_cases": "physicochemical",
  "key": {"[1]": {"experiment": "Polymorph screen: crystallization and drying experiments (FT-Raman, PXRD, TG-FTIR, DSC)", "method": "A preformulation and polymorphism study was performed for compound 63415. […] A total of 30 crystallization experiments, including phase equilibrations, drying experiments and other techniques, were carried out. All obtained solids were characterized by FT-Raman spectroscopy. All new forms were characterized by PXRD and TG-FTIR, and optionally by DSC and DVS.\nAll obtained materials were characterized by FT-Raman spectroscopy; selected samples were also characterized by PXRD.\nSuspension equilibration experiments were carried out in one solvent and eleven solvent mixtures (Table 13). Suspensions of ˜100 mg of PP415-P1 in 0.2-2.0 mL of the selected solvents were prepared and shaken for 4-15 days at 22-24° C. The solids were recovered and characterized by FT-Raman spectroscopy; most were characterized also by PXRD.\nHot solutions of PP415-P1 were prepared in one solvent and four solvent mixtures (Table 14). […] In two cases (-P22, -P23) no solid precipitated, even after storage at 4-5° C. for two days. Here, the solvent was evaporated under N2 flow at r.t. The solids were recovered and characterized by FT-Raman spectroscopy and for those with spectra different from the amorphous starting material, FT-Raman class 1, also by PXRD.\nClear solutions of PP415-P1 were prepared in three solvent mixtures (Table 15). The solvents were then slowly evaporated at r.t. under ambient conditions. However, in two of the three experiments (-P15 and -P17) white solid precipitated before evaporation began. The obtained solids were examined by FT-Raman spectroscopy and PXRD.\nAt least one sample of each class was dried under vacuum with the aim to desolvate the solvates and to obtain non-solvated crystalline forms of 63415 (Table 16). The dried materials were characterized further by FT-Raman, PXRD, and TG-FTIR.\nBruker RFS100 with OPUS 6.5 software; Nd:YAG 1064-nm excitation, Ge detector, 3500-100 cm^−1 range; typical measurement conditions: 100-300 mW nominal laser power, 64-128 scans, 2 cm^−1 resolution.\nStoe Stadi P; Mythen1K Detector; Cu—Kα radiation; standard measurement conditions: transmission; 40 kV and 40 mA tube power; curved Ge monochromator; 0.02°2θ step size, 12 s or 60 s step time, 1.5-50.5°2θ or 1.0-55°2θ scanning range; detector mode: step scan; 1°2θ or 6°2θ detector step; standard sample preparation: 10 to 20 mg sample was placed between two acetate foils; sample holder: Stoe transmission sample holder; the sample was rotated during the measurement.\nNetzsch Thermo-Microbalance TG 209 with Bruker FT-IR Spectrometer Vector 22; aluminum crucible (with microhole), N2 atmosphere, 10 K/min heating rate, 25-250° C. or 25-350° C. range.\nPerkin Elmer DSC 7; gold crucibles (closed or with microhole), sample filled in an N2 environment, 10 K/min heating rate, −50 to 250° C. or 350° C. range, at times quench cooling (at −200 K/min) to −50° C. between scans."}, "[2]": {"experiment": "Storage stability of the amorphous form (PXRD)", "method": "To learn more about its fundamental properties and physical stability, the amorphous form of 63415 was stressed by storage at elevated temperatures and relative humidities.\nSamples of the amorphous form (the PP415-P1 starting material) were stored open at 25° C./˜62% r.h. (over saturated aqueous solution of NH4NO3) and 40° C./˜75% r.h. (over saturated aqueous solution of NaCl) and closed at 60° C. and 80° C. (Table 12). At time points 0 w, 1 w, 2 w, and 4 w the samples were examined by PXRD and compared to the starting material, PP415-P1."}, "[3]": {"experiment": "Dynamic vapor sorption (hygroscopicity)", "method": "Projekt Messtechnik Sorptions Prüfsystem SPS 11-100n or Surface Measurement Systems DVS-1. The sample was placed on an aluminum or platinum holder on top of a microbalance and allowed to equilibrate for 2 h at 50% r.h. before starting the pre-defined humidity program: • (1) 50→0% r.h. (5%/h); 5 h at 0% r.h. • (2) 0→95% r.h. (5%/h); 5 h at 95% r.h. • (3) 95→50% r.h. (5%/h); 2 h at 50% r.h."}, "[4]": {"experiment": "Chemical stability in solvents and aqueous surfactant media (HPLC)", "conditions": "diluent 0.1% formic acid in MeCN, within ~24 hours; start 99.9%", "method": "The chemical stability of the amorphous form was investigated in different solvents over the course of seven days.\nSolutions/suspensions with a concentration of 1 mg/mL were prepared in four organic solvents (acetone, MeOH, MeCN, EtOAc) and three aqueous surfactant media (1% aq. SDS, 1% aq. Tween 80, 1% aq. CTAB).\nFour separate solutions/suspensions were prepared for each solvent, equilibrated for 6 h, 24 h, 2 d, and 7 d and subsequently analyzed by HPLC.\nDue to this effect, the samples measured towards the end of the sequence (set up in the following order: 7 d, 2 d, 24 h, 6 h), might be affected and the obtained area-% might be underestimated.\nFour samples of 1.0 mg of the PP415-P1 material in 1.0 mL of the respective solvent were prepared. The resulting suspensions/solutions were equilibrated in a temperature-controlled Eppendorf Thermomixer Comfort shaker for 7 d, 2 d, 24 h, and 6 h at 25° C. at a shaking rate of 500 rpm. If necessary, the solid phase was separated by filter centrifugation (0.5-μm PVDF membrane). The filtrates were diluted in the diluent (0.1% formic acid in MeCN) to concentrations≦0.2 mg/mL (unknown and likely lower for suspensions) and examined using the HPLC method given in Table 29. As reference, the PP415-P1 material was diluted in the diluent to a concentration of 0.25 mg/mL and added to the beginning and end of the HPLC sequence."}, "[5]": {"experiment": "Approximate solubility by manual dilution", "conditions": "r.t.", "method": "The approximate solubility of the PP415-P1 starting material was measured in twelve solvents and four solvent mixtures at r.t. by manual dilution combined with visual observation (Table 10). Due to the experimental error inherent in this method, the solubility values are intended to be regarded as rough estimates and are to be used solely for the design of crystallization experiments. All solvent mixtures are listed as ratios by volume (v/v).\nApproximate Solubility Determination: Approximate solubilities were determined by a stepwise dilution of a suspension of about 10 mg of substance in 0.05 mL of solvent. […] Due to the experimental error inherent in this method, the solubility values are intended to be regarded as rough estimates and are to be used solely for the design of crystallization experiments."}},
  "note": "Marks after values point to notes of the source that are not given here.",
  "data": [
    {"smiles": "CC1(C)CC[C@]2(NC(=O)C(C)(F)F)CC[C@]3(C)[C@H](C(=O)C=C4[C@@]5(C)C=C(C#N)C(=O)C(C)(C)[C@@H]5CC[C@]43C)[C@@H]2C1", "note": "[PP415-P1]", "values": [
      {"measurement": "TG-FTIR: decomposition at T", "setting": "[1]", "result": "decomposition at T > 290 °C"},
      {"measurement": "DSC: Tg, 1st scan", "setting": "[1]; 1st scan", "result": "DSC: 1st scan: Tg = 152.7 °C"},
      {"measurement": "DSC: Tg, 2nd scan", "setting": "[1]; 2nd scan", "result": "Tg = 149.7 °C (ΔCp = 0.45 J/g ° C.)"},
      {"measurement": "TG-FTIR: mass loss (solvent)", "setting": "[1]; first or main loss, solvent and temperature range per sample as printed", "result": "TG-FTIR: loss of ~0.9 wt.-%"},
      {"measurement": "PXRD Result after storage", "setting": "[2]; closed, 60° C., 1 w", "result": "amorphous"},
      {"measurement": "PXRD Result after storage", "setting": "[2]; closed, 60° C., 2 w", "result": "amorphous"},
      {"measurement": "PXRD Result after storage", "setting": "[2]; closed, 60° C., 4 w", "result": "amorphous"},
      {"measurement": "PXRD Result after storage", "setting": "[2]; closed, 80° C., 1 w", "result": "amorphous"},
      {"measurement": "PXRD Result after storage", "setting": "[2]; closed, 80° C., 2 w", "result": "amorphous"},
      {"measurement": "PXRD Result after storage", "setting": "[2]; closed, 80° C., 4 w", "result": "amorphous"},
      {"measurement": "PXRD Result after storage", "setting": "[2]; open, 25° C./~62% r.h., 1 w", "result": "amorphous"},
      {"measurement": "PXRD Result after storage", "setting": "[2]; open, 25° C./~62% r.h., 2 w", "result": "amorphous"},
      {"measurement": "PXRD Result after storage", "setting": "[2]; open, 25° C./~62% r.h., 4 w", "result": "amorphous"},
      {"measurement": "PXRD Result after storage", "setting": "[2]; open, 40° C./~75% r.h., 1 w", "result": "amorphous"},
      {"measurement": "PXRD Result after storage", "setting": "[2]; open, 40° C./~75% r.h., 2 w", "result": "amorphous"},
      {"measurement": "PXRD Result after storage", "setting": "[2]; open, 40° C./~75% r.h., 4 w", "result": "amorphous"},
      {"measurement": "DVS: hygroscopicity class", "setting": "[3]", "result": "DVS: slightly hygroscopic; Δm = (mass increase <2% but ≧0.2%)"},
      {"measurement": "DVS: total mass gain from 0% r.h. to 95% r.h.", "setting": "[3]; 0% r.h. to 95% r.h.", "result": "mass gain of 2.1 wt.-% from 0%"},
      {"measurement": "DVS: Δm (50%→85% r.h.)", "setting": "[3]; 50%→85% r.h.", "result": "+0.4% (50%→85% r.h.); total"},
      {"measurement": "Δm (50%→85% r.h.)", "setting": "[3]; DVS", "result": "+0.4%"},
      {"measurement": "post-DVS Raman and/or PXRD: solid form", "setting": "[3]; after DVS", "result": "unchanged"},
      {"measurement": "Hygroscopicity classification (DVS)", "setting": "[3]; mass gain at 85% r.h.", "result": "slightly hygroscopic (mass increase <2% but ≧0.2%)"},
      {"measurement": "area-% of reference sample at end of HPLC sequence, 242 nm", "setting": "[4]", "result": 99.5, "unit": "%"},
      {"measurement": "area-% of reference sample at end of HPLC sequence, 254 nm", "setting": "[4]", "result": 99.3, "unit": "%"},
      {"measurement": "Solubility S", "setting": "[5]; DCM", "result": "S > 200 mg/mL"},
      {"measurement": "Solubility S", "setting": "[5]; DEE, dissolved completely overnight", "result": "S > 1^d mg/mL"},
      {"measurement": "Solubility S", "setting": "[5]; DMF", "result": "S > 210 mg/mL"},
      {"measurement": "Solubility S", "setting": "[5]; EtOAc", "result": "S > 210 mg/mL"},
      {"measurement": "Solubility S", "setting": "[5]; H2O", "result": "S < 1 mg/mL"},
      {"measurement": "Solubility S", "setting": "[5]; MeCN", "result": "S > 230 mg/mL"},
      {"measurement": "Solubility S", "setting": "[5]; MeCN/H2O (2:3)", "result": "S < 1 mg/mL"},
      {"measurement": "Solubility S", "setting": "[5]; MeOH", "result": "S < 210 mg/mL"},
      {"measurement": "Solubility S", "setting": "[5]; acetone", "result": "S > 230 mg/mL"},
      {"measurement": "Solubility S", "setting": "[5]; heptane", "result": "S < 1 mg/mL"},
      {"measurement": "Solubility S", "setting": "[5]; toluene", "result": "S > 200 mg/mL"},
      {"measurement": "Solubility S", "setting": "[5]; toluene/DEE (1:1), precipitation after ~1d", "result": "S > 220 mg/mL"}
    ]}
  ]
}
